{
  "source": "patent US11414384B2",
  "about": "“P300/CBP hat inhibitors” (Constellation Pharmaceuticals, Inc., priority 2018, dated 2022)",
  "data": [
    {"molecular_target": "p300 HAT domain (residues 1287-1666) (Homo sapiens (Human), UniProt Q09472)", "sequence (Q09472 1287-1666)": "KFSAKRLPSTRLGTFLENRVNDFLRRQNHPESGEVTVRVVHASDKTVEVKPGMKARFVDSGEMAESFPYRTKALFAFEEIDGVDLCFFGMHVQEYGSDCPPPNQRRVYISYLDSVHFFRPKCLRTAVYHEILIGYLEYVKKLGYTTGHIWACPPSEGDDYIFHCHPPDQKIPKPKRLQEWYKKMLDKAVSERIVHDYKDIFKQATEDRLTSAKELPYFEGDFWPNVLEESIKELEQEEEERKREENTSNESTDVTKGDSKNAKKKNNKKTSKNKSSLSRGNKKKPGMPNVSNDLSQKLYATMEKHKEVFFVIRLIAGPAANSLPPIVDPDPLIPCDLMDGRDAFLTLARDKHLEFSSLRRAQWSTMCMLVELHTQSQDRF", "assay": "p300 HAT SPA assay (scintillation proximity assay, acetylation of biotinylated H3(1-21) peptide)", "assay_type": "biochemical", "conditions": "p300 HAT domain; average of at least 2 replicate titrations; read-out: P300 HAT SPA IC50", "method": "In a typical experiment the p300 HAT inhibitory activity of the compounds described herein was determined in accordance with the following experimental method.\nThe expressed protein was purified by Ni2+ affinity, followed by anion exchange chromatography. Appropriate fractions were pooled and buffer exchanged into 20 mM Hepes pH 7.5, 150 mM NaCl, and 1 mM TCEP.\n35 μL of the reaction volume was transferred to a 384-well streptavidin FlashPlate (PerkinElmer) using a Bravo liquid handler (Velocity 11) and incubated for 1.5 hr at RT. […] Data were analyzed in Genedata to determine inhibitor IC50 values.", "units": {"IC50": "µM"}, "values": [
      {"smiles": "Cn1cc(-c2ccc3c(C(=O)C(NCCc4ccc(C(N)=O)cc4Cl)c4ccccc4)c[nH]c3c2)cn1", "note": "(racemic) [143 racemic, 3-chloro-4-(2-((2-(6-(1-methyl-1H-pyrazol-4-yl)-1H-indol-3-yl)-2-oxo-1-phenylethyl)amino)ethyl)benzamide]", "IC50": 0.266},
      {"smiles": "NS(=O)(=O)c1ccc(CCNC(C(=O)c2c[nH]c3cc(C(F)(F)F)ccc23)c2ccccc2)cc1", "note": "(single isomer, unassigned) [1 Isomer 1]", "IC50": 14.1},
      {"smiles": "NS(=O)(=O)c1ccc(CCNC(C(=O)c2c[nH]c3cc(C(F)(F)F)ccc23)c2ccccc2)cc1", "note": "(single isomer, unassigned) [1 Isomer 2]", "IC50": "> 30"},
      {"smiles": "O=C(c1c[nH]c2ccccc12)C(NCCc1ccccc1Cl)c1ccccc1", "note": "(single isomer, unassigned) [3 Isomer 1]", "IC50": "> 60"},
      {"smiles": "O=C(c1c[nH]c2ccccc12)C(NCCc1ccccc1Cl)c1ccccc1", "note": "(single isomer, unassigned) [3 Isomer 2]", "IC50": 6.39},
      {"smiles": "O=C(c1c[nH]c2ccccc12)C(NCCc1cccc(Cl)c1)c1ccccc1", "note": "(single isomer, unassigned) [4 Isomer 1]", "IC50": "> 60"},
      {"smiles": "O=C(c1c[nH]c2ccccc12)C(NCCc1cccc(Cl)c1)c1ccccc1", "note": "(single isomer, unassigned) [4 Isomer 2]", "IC50": 4.4},
      {"smiles": "O=C(c1c[nH]c2ccccc12)C(NCCc1ccc(Cl)cc1)c1ccccc1", "note": "(single isomer, unassigned) [5 Isomer 1]", "IC50": 8.76},
      {"smiles": "O=C(c1c[nH]c2ccccc12)C(NCCc1ccc(Cl)cc1)c1ccccc1", "note": "(single isomer, unassigned) [5 Isomer 2]", "IC50": 0.867},
      {"smiles": "COc1ccccc1CCNC(C(=O)c1c[nH]c2ccccc12)c1ccccc1", "note": "(single isomer, unassigned) [6 Isomer 1]", "IC50": "> 60"},
      {"smiles": "COc1cccc(CCNC(C(=O)c2c[nH]c3ccccc23)c2ccccc2)c1", "note": "(single isomer, unassigned) [7 Isomer 1]", "IC50": 7.35},
      {"smiles": "COc1ccc(CCNC(C(=O)c2c[nH]c3ccccc23)c2ccccc2)cc1", "note": "(single isomer, unassigned) [8 Isomer 1]", "IC50": 43.2},
      {"smiles": "NS(=O)(=O)c1ccc(CCNC(C(=O)c2c[nH]c3c(Cl)cccc23)c2ccccc2)cc1", "note": "(single isomer, unassigned) [15 Isomer 1]", "IC50": "> 60"},
      {"smiles": "Cc1[nH]c2ccccc2c1C(=O)C(NCCc1ccc(S(N)(=O)=O)cc1)c1ccccc1", "note": "(single isomer, unassigned) [16 Isomer 1]", "IC50": 49.2},
      {"smiles": "Cn1cc(C(=O)C(NCCc2ccc(S(N)(=O)=O)cc2)c2ccccc2)c2ccccc21", "note": "(single isomer, unassigned) [17 Isomer 1]", "IC50": 7.99},
      {"smiles": "Cn1cc(C(=O)C(NCCc2ccc(S(N)(=O)=O)cc2)c2ccccc2)c2ccccc21", "note": "(single isomer, unassigned) [17 Isomer 2]", "IC50": 1.85},
      {"smiles": "O=C(c1c[nH]c2ccccc12)C(NCCN1CCOCC1)c1ccccc1", "note": "(single isomer, unassigned) [18 Isomer 1]", "IC50": "> 60"},
      {"smiles": "O=C(c1c[nH]c2ccccc12)C(NCCN1CCOCC1)c1ccccc1", "note": "(single isomer, unassigned) [18 Isomer 2]", "IC50": "> 60"},
      {"smiles": "O=C(c1c[nH]c2ccccc12)C(NCCc1ccc(Cl)cc1Cl)c1ccccc1", "note": "(single isomer, unassigned) [19 Isomer 1]", "IC50": "> 60"},
      {"smiles": "O=C(c1c[nH]c2ccccc12)C(NCCc1ccc(Cl)c(Cl)c1)c1ccccc1", "note": "(single isomer, unassigned) [20 Isomer 1]", "IC50": "> 60"},
      {"smiles": "O=C(c1c[nH]c2ccccc12)C(NCCc1ccc(Cl)c(Cl)c1)c1ccccc1", "note": "(single isomer, unassigned) [20 Isomer 2]", "IC50": 3.07},
      {"smiles": "O=C(c1c[nH]c2ccccc12)C(NCCc1ccc(C(F)(F)F)cc1)c1ccccc1", "note": "(single isomer, unassigned) [21 Isomer 2]", "IC50": 32.8},
      {"smiles": "O=C(c1c[nH]c2ccccc12)C(NCCc1ccc(F)cc1)c1ccccc1", "note": "(single isomer, unassigned) [22 Isomer 1]", "IC50": "> 60"},
      {"smiles": "CC(NCCc1ccc(Cl)cc1)C(=O)c1c[nH]c2ccccc12", "note": "(single isomer, unassigned) [23 Isomer 1]", "IC50": "> 60"},
      {"smiles": "CC(NCCc1ccc(Cl)cc1)C(=O)c1c[nH]c2ccccc12", "note": "(single isomer, unassigned) [23 Isomer 2]", "IC50": "> 60"},
      {"smiles": "O=C(c1c[nH]c2ccccc12)C(NCCc1ccc(Cl)cc1)C1CC1", "note": "(single isomer, unassigned) [24 Isomer 1]", "IC50": 52.2},
      {"smiles": "O=C(c1c[nH]c2ccccc12)C(NCCc1ccc(Cl)cc1)C1CC1", "note": "(single isomer, unassigned) [24 Isomer 2]", "IC50": "> 60"},
      {"smiles": "O=C(c1c[nH]c2ccccc12)C(NCCc1ccc(Cl)cc1)C1CCCC1", "note": "(single isomer, unassigned) [25 Isomer 1]", "IC50": "> 60"},
      {"smiles": "O=C(c1c[nH]c2ccccc12)C(NCCc1ccc(Cl)cc1)C1CCCC1", "note": "(single isomer, unassigned) [25 Isomer 2]", "IC50": "> 60"},
      {"smiles": "CC(Cc1ccc(Cl)cc1)NC(C(=O)c1c[nH]c2ccccc12)c1ccccc1", "note": "(single isomer, unassigned) [27 Isomer 2]", "IC50": "> 60"},
      {"smiles": "CC(Cc1ccc(Cl)cc1)NC(C(=O)c1c[nH]c2ccccc12)c1ccccc1", "note": "(single isomer, unassigned) [27 Isomer 3]", "IC50": "> 60"},
      {"smiles": "CC(Cc1ccc(Cl)cc1)NC(C(=O)c1c[nH]c2ccccc12)c1ccccc1", "note": "(single isomer, unassigned) [27 Isomer 4]", "IC50": "> 60"},
      {"smiles": "COc1ccc(CCNC(C(=O)c2c[nH]c3c(Cl)cccc23)c2ccccc2)cc1", "note": "(single isomer, unassigned) [28 Isomer 1]", "IC50": 7.58},
      {"smiles": "COc1ccc(CCNC(C(=O)c2c[nH]c3c(Cl)cccc23)c2ccccc2)cc1", "note": "(single isomer, unassigned) [28 Isomer 2]", "IC50": 1.37},
      {"smiles": "O=C(c1c[nH]c2ccccc12)C(NCCc1cn[nH]c1)c1ccccc1", "note": "(single isomer, unassigned) [34 Isomer 1]", "IC50": "> 60"},
      {"smiles": "O=C(c1c[nH]c2ccccc12)C(NCCc1cn[nH]c1)c1ccccc1", "note": "(single isomer, unassigned) [34 Isomer 2]", "IC50": 24.7},
      {"smiles": "Cn1cc(CCNC(C(=O)c2c[nH]c3ccccc23)c2ccccc2)cn1", "note": "(single isomer, unassigned) [35 Isomer 1]", "IC50": 39.8},
      {"smiles": "Cn1cc(CCNC(C(=O)c2c[nH]c3ccccc23)c2ccccc2)cn1", "note": "(single isomer, unassigned) [35 Isomer 2]", "IC50": 43.5},
      {"smiles": "O=C(c1c[nH]c2ccccc12)C(NCCn1ccnc1)c1ccccc1", "note": "(single isomer, unassigned) [36 Isomer 1]", "IC50": "> 60"},
      {"smiles": "O=C(c1c[nH]c2ccccc12)C(NCCn1ccnc1)c1ccccc1", "note": "(single isomer, unassigned) [36 Isomer 2]", "IC50": "> 60"},
      {"smiles": "O=C(c1c[nH]c2ccccc12)C(NCCn1cnc2ccccc21)c1ccccc1", "note": "(single isomer, unassigned) [37 Isomer 1]", "IC50": "> 60"},
      {"smiles": "O=C(c1c[nH]c2ccccc12)C(NCCn1cnc2ccccc21)c1ccccc1", "note": "(single isomer, unassigned) [37 Isomer 2]", "IC50": "> 60"},
      {"smiles": "Cc1ccc(CCNC(C(=O)c2c[nH]c3ccccc23)c2ccccc2)cc1", "note": "(single isomer, unassigned) [38 Isomer 1]", "IC50": 19},
      {"smiles": "CN(C)c1ccc(CCNC(C(=O)c2c[nH]c3ccccc23)c2ccccc2)cc1", "note": "(single isomer, unassigned) [39 Isomer 1]", "IC50": "> 60"},
      {"smiles": "O=C(c1c[nH]c2ccccc12)C(NCCc1ccc(OC(F)(F)F)cc1)c1ccccc1", "note": "(single isomer, unassigned) [40 Isomer 1]", "IC50": "> 60"}
    ]}
  ]
}
